{
  "source": "patent US20230108730A1",
  "about": "“BIENZYMATIC BIOSENSOR FOR THE DETECTION OF LACTULOSE IN BLOOD” (TRIVIUMVET DESIGNATED ACTIVITY COMPANY, priority 2020, published 2023)",
  "key": {"H-2 receptors": {"target": "H-2 receptors (Homo sapiens, UniProt P25021)", "sequence (P25021 whole entry)": "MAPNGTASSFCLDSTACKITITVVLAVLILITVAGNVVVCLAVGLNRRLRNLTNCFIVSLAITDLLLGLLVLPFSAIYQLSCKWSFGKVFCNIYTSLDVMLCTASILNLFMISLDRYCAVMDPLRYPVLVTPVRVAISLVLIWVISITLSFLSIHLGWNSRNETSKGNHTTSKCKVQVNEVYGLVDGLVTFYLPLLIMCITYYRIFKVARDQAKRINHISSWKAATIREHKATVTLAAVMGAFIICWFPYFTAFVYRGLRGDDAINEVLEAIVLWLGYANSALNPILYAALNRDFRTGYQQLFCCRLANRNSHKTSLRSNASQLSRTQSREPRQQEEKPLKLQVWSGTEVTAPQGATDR", "conditions": "human subjects, administered intravenously; cited from earlier work"}, "[1]": {"experiment": "Plasma lactulose after oral lactulose solution in canine NSAID-induced gastric ulceration model (ion chromatography)", "type": "in vivo, dog", "conditions": "for concentration at 10 min / concentration at 20 min / concentration at 30 min / concentration at 60 min: dog, plasma, po; for concentration at 20 min: 20 min after 0.6-0.7 g/kg PO; for concentration at 30 min: 30 min after 0.6-0.7 g/kg PO; for concentration at 60 min: 60 min after 0.6-0.7 g/kg PO", "method": "A model of canine gastric ulceration was developed using a combination of orally administered nonsteroidal anti-inflammatory drugs (NSAIDs) at doses appropriate to induce ulceration without concomitant renal or hepatic dysfunction. Healthy laboratory dogs (14.0 to 16.7 kg) were screened to exclude individuals with clinically silent disorders, including gastrointestinal disease. Under the GCP study protocol, each dog was administered 50 ml of a 20% w/v lactulose solution orally (0.6-0.7 g/kg lactulose PO) following a 24-h fast at baseline and following a period of ulcer induction. On each occasion, peripheral venous blood was drawn from each dog into 1.3-ml Sarstedt blood tubes containing lithium heparin as an anticoagulant at 10, 20, 30 and 60 minutes following bolus administration of the lactulose solution. The Sarstedt tube product number was 41.1393.005. Blood samples were centrifuged for 15 minutes at 3000 rpm, before decanting plasma into plain tubes; plasma was stored at −80° C. until analysis. Prior to lactulose administration, endoscopy was performed on each dog, and the presence and extent of gastric ulceration were assessed by a blinded specialist veterinary gastroenterologist. Following confirmation of the presence of ulceration, NSAID administration was discontinued and post ulcer induction lactulose administration and plasma collection were performed. Frozen plasma samples were transported under GMP conditions at −80° C. to an analytical facility. Following thawing, the samples were analysed for lactulose concentration using an ion chromatography method previously developed using blank plasma samples spiked with known concentrations of lactulose. [table] Sample preparation for Ion Chromatography analysis: 200 μL aliquots of liquid from each of the plasma samples were diluted to 1000 μL with acetonitrile. The samples were vortexed thoroughly, followed by centrifugation at 15000 rpm for 10 minutes. The supernatants were analysed directly by ion chromatography. Analysis was performed in duplicate. Calibration Curve: Calibration curves were prepared in the blank plasma sample. Briefly, plasma samples were spiked with varying concentrations of lactulose and were then diluted with acetonitrile to the required final concentration range. The samples were then processed as described above before analysis by ion chromatography. Samples were analysed in duplicate. Linearity was established for plasma lactulose concentrations in the range 5 to 250 μM."}, "[2]": {"experiment": "Electrochemical dual-enzyme (β-Gal/GalOx) biosensor quantification of lactulose in canine plasma sample by amperometry", "type": "in vivo", "conditions": "dog, oral, canine plasma sample CAN 84049 D6 t60, standard additions calibration, read-out: lactulose concentration in the original plasma sample", "description": "An electrochemical biosensor for the indirect detection of lactulose in buffer and plasma samples used an electrocatalytic surface as the working electrode which was modified with a dual enzyme system comprising β-galactosidase (β-Gal) and galactose oxidase (GalOx). The electrochemical biosensor comprised a 3-electrode system of a working electrode (the dual enzyme-modified Pt electrode), an Ag/AgCl reference electrode, and a Pt wire as auxiliary electrode.\nThe enzymes were immobilised on the surface of the working electrode using a cross-linker. A 2 mm diameter Pt disk was used as the electrocatalytic surface for the working electrode. […]\nThe three electrodes were immersed in 2 mL of PBS solution 0.1 M pH 7.3 at 35° C. to comprise the electrochemical cell and an oxidative potential of +600 mV was applied between the working and reference electrodes for quantification of lactulose in a canine plasma sample by amperometry, as illustrated in FIG. 5. […]\nFollowing this 200 μL of canine plasma (CAN 84049 D6 t60) was added to the cell and the current response was monitored for a period of 400 s.\nThree sequential additions of a volume of 1 mM Lactulose standard (V1=75 μL; V2=80 μL; V3=85 μL) were then added to the cell and the current response was monitored for 400 s after each addition. […]"}, "gastric ulcers": {"test_system": "gastric ulcers", "conditions": "foals; ulcers associated with intravenous high-dose NSAIDs; cited from earlier work"}, "gastric ulceration": {"test_system": "gastric ulceration", "experiment": "Omeprazole treatment of study dogs with NSAID-induced gastric ulceration", "type": "in vivo, dog", "conditions": "0.5 to 1.0 mg/kg twice daily for 3 weeks"}, "[3]": {"conditions": "ulceration Moderate to severe (n = 4)"}},
  "data": [
    {"compound": "NC(N)=Nc1nc(CSCCC(N)=NS(N)(=O)=O)cs1", "note": "[famotidine]", "values": [
      {"measurement": "time to occurrence of tolerance", "setting": "H-2 receptors", "value": "12 to 72", "unit": "h"}
    ]},
    {"compound": "OC[C@H]1O[C@@H](O[C@@H]2[C@@H](CO)OC(O)(CO)[C@H]2O)[C@H](O)[C@@H](O)[C@H]1O", "note": "(mixture of isomers) [Lactulose, lactulose]", "values": [
      {"measurement": "concentration at 10 min", "setting": "[1]; 10 min after 0.6-0.7 g/kg PO (50 ml 20% w/v), endoscopic grade of gastric ulceration Absent (n = 8)", "value": 24.9, "unit": "µM"},
      {"measurement": "concentration at 10 min", "setting": "[1]; 10 min after 0.6-0.7 g/kg PO, ulceration Mild (n = 4)", "value": 44.6, "unit": "µM"},
      {"measurement": "concentration at 10 min", "setting": "[1]; 10 min after 0.6-0.7 g/kg PO, ulceration Moderate to severe (n = 4)", "value": 60.9, "unit": "µM"},
      {"measurement": "concentration at 20 min", "setting": "[1]; ulceration Absent (n = 8)", "value": 39.1, "unit": "µM"},
      {"measurement": "concentration at 20 min", "setting": "[1]; ulceration Mild (n = 4)", "value": 68.7, "unit": "µM"},
      {"measurement": "concentration at 20 min", "setting": "[1]; [3]", "value": 94.3, "unit": "µM"},
      {"measurement": "concentration at 30 min", "setting": "[1]; ulceration Absent (n = 8)", "value": 46, "unit": "µM"},
      {"measurement": "concentration at 30 min", "setting": "[1]; ulceration Mild (n = 4)", "value": 88.2, "unit": "µM"},
      {"measurement": "concentration at 30 min", "setting": "[1]; [3]", "value": 144, "unit": "µM"},
      {"measurement": "concentration at 60 min", "setting": "[1]; ulceration Absent (n = 8)", "value": 61.1, "unit": "µM"},
      {"measurement": "concentration at 60 min", "setting": "[1]; ulceration Mild (n = 4)", "value": 110, "unit": "µM"},
      {"measurement": "concentration at 60 min", "setting": "[1]; [3]", "value": 184, "unit": "µM"},
      {"measurement": "rate and extent of systemic lactulose absorption", "setting": "[1]; following ulcer induction versus baseline, each dog", "value": "increased significantly"},
      {"measurement": "concentration at 60 min", "setting": "[2]", "value": "275 to 400", "unit": "µM"}
    ]},
    {"compound": "sucralfate", "values": [
      {"measurement": "effect on gastric ulcers", "setting": "gastric ulcers", "value": "protective effect"}
    ]},
    {"compound": "COc1ccc2[nH]c([S+]([O-])Cc3ncc(C)c(OC)c3C)nc2c1", "note": "(centres unmarked) [omeprazole]", "values": [
      {"measurement": "time to resolution of laboratory evidence of gastric ulceration (anemia, inflammatory leucogram, hypoalbuminaemia)", "setting": "gastric ulceration", "value": "≤ 3", "unit": "weeks"}
    ]}
  ]
}
